Test results: US8846750B2, “Pharmaceutical and food compositions for preventing or treating diabetes or obesity” (Korea Ocean Research and Development Institute, priority 2010, dated 2014)

Experiments:
PTP-1b = target: T1, PTP-1b (Homo sapiens, UniProt P18031); assay: Selectivity for protein tyrosine phosphatases: PTP-1b; assay type: biochemical; details: at a concentration of 0.2 µM (IC50); read-out: inhibition rate against PTP-1b
T1 construct: purchased Bioneer, Korea
T1 sequence (P18031 1-435): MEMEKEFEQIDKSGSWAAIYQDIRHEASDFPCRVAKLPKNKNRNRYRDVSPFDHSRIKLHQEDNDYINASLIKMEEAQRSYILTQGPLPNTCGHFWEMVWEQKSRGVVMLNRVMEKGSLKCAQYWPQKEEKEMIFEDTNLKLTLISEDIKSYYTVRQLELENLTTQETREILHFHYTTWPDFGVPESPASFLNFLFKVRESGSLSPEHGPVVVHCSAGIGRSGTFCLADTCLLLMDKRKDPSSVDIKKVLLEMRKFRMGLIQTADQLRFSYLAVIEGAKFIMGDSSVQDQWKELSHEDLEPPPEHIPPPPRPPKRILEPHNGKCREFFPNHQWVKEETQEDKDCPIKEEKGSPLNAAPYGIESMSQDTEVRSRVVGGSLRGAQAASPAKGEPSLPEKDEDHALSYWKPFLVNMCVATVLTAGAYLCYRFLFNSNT
Protocol: In order to examine the selectivity of sodium lobarate for protein tyrosine phosphatases, the inhibitory activities of sodium lobarate against PTP-1b, PTPN2, PTPN5, PTPN6, PTPN7 and PTPN13 were examined by spectroscopically measuring the activities of the enzymes.
Specifically, to 0.5 mg/Ml of PTP-1b, PTPN2, PTPN5, PTPN6, PTPN7 or PTPN13 (Bioneer, Korea) in protein tyrosine phosphatase buffer (20 mM Tris-Hcl, pH 8.0, 0.75 mM NaCl, 0.5 mM EDTA, 5 mM β-mercaptoethanol, 50% glycerol), 0, 50, 100 or 200 nM sodium lobarate and the substrate [pTyr1146] insulin receptor (1142-1153, Sigma, USA) were added. Then, each of the mixtures was allowed to react at room temperature for 10-30 minutes, and then malachite green-molybdate dye solution (Sigma, USA) was added thereto and reacted at room temperature for 10 minutes. After completion of the reaction with the substrate, the absorbance at 620 nm was measured.
(§1) In order to examine the selectivity of Lobarin for protein tyrosine phosphatases, the inhibitory activities of Lobarin against PTP-1b, PTPN2, PTPN5, PTPN6, PTPN7 and PTPN13 were examined by spectroscopically measuring the activities of the enzymes.
Specifically, to 0.5 mg/Ml of PTP-1b, PTPN2, PTPN5, PTPN6, PTPN7 or PTPN13 (Bioneer, Korea) in protein tyrosine phosphatase buffer (20 mM Tris-Hcl, pH 8.0, 0.75 mM NaCl, 0.5 mM EDTA, 5 mM β-mercaptoethanol, 50% glycerol), 0, 50, 100 or 200 nM Lobarin and the substrate [pTyr1146] insulin receptor (1142-1153, Sigma, USA) were added. […] After completion of the reaction with the substrate, the absorbance at 620 nm was measured.
as §1, with “Lobarstin” for “Lobarin”, “enzymes. […] After completion of the reaction with the substrate, the absorbance at 620 nm was measured.” for “enzymes.”

[1] = tested on: db/db mice (type 2 diabetic model animals); assay: Intraperitoneal glucose tolerance test (IPGTT) 28 days after intraperitoneal administration; assay type: in vivo; details: 10 mg/kg i.p. for 28 days; for blood glucose level after injection of glucose (IPGTT): fasted 16 hours; for course of blood glucose level in IPGTT: versus control group
Protocol: An intraperitoneal glucose tolerance test (IPGTT) in the animal model of sodium lobarate was performed in the following manner.
To 7-week-old male db/db mice (type 2 diabetic model animals, C57/BLKS/J-db/db, the Korea Research Institute of Bioscience and Biotechnology), physiological saline for a control group and 10 mg/kg of sodium lobarate for a test group was injected, respectively, intraperitoneally every day for 28 days. Then, the animals were fasted for 16 hours without administering physiological saline or sodium lobarate, after which glucose (500 mg/Ml; injection volume of […]) was injected intraperitoneally into the animals. 0, 15, 30, 60, 90 and 120 min after injection of glucose, blood was sampled from the tail vein, and the changes in the blood glucose levels of the samples were measured. […]
(§2) To 7-week-old male db/db mice (type 2 diabetic model animals, C57/BLKS/J-db/db, the Korea Research Institute of Bioscience and Biotechnology), 20% DMSO for a control group and 10 mg/kg of Lobarin for a test group was injected, respectively, intraperitoneally every day for 28 days. Then, the animals were fasted for 16 hours without administering 20% DMSO or Lobarin for each group, after which glucose (500 mg/Ml; injection volume of 200 μl) was injected intraperitoneally into the animals. 0, 15, 30, 60, 90 and 120 min after injection of glucose, blood was sampled from the tail vein, and the changes in the blood glucose levels of the samples were measured.
as §2, with “Lobarstin” for “Lobarin”, “physiological saline and Lobarstin,” for “20% DMSO or Lobarin for each group,”

| inhibition at 0.2 µM (PTP-1b) | Structure (SMILES) | blood glucose level after injection of glucose (IPGTT) ([1]; 0 min) | course of blood glucose level in IPGTT [1] | blood glucose level after injection of glucose (IPGTT) ([1]; 15 min) | blood glucose level after injection of glucose (IPGTT) ([1]; 30 min) | blood glucose level after injection of glucose (IPGTT) ([1]; 60 min) | blood glucose level after injection of glucose (IPGTT) ([1]; 90 min) | blood glucose level after injection of glucose (IPGTT) ([1]; 120 min) |
| --- | --- | --- | --- | --- | --- | --- | --- | --- |
| 52.2% | CCCCCc1c(Oc2cc(OC)cc3c2C(=O)OC3(O)CCCC)c(O)cc(O)c1C(=O)O (stereo not drawn) [Lobarin] | 153 mg/dL | a low increase and a fast decrease in the blood glucose level | 358 mg/dL | 436 mg/dL | 390 mg/dL | 335 mg/dL | 290 mg/dL |
| 50% | CCCCCc1c2c(cc(O)c1C(=O)[O-])OC(=O)c1c(cc(OC)cc1C(=O)CCCC)O2.[Na+] [sodium lobarate] | 153 mg/dL | a low increase and a fast decrease in the blood glucose level | 291 mg/dL | 361 mg/dL | 385 mg/dL | 335 mg/dL | 290 mg/dL |
| 48% | CCC/C=C1/OC(=O)c2c(Oc3c(O)cc(O)c(C(=O)O)c3CCCCC)cc(OC)cc21 [Lobarstin] | 152 mg/dL | a low increase and a fast decrease in the blood glucose level | 229 mg/dL | 307 mg/dL | 205 mg/dL | 162 mg/dL | 147 mg/dL |
